# Data reported in BindingDB's records for doi:10.1021/acsmedchemlett.6b00381 (Mossakowski Medical Research Centre Polish Academy of …, 2017).
# Molecular target: Substance-P receptor (Rattus norvegicus, UniProt P14600)
# Test: ChEBML_1632341
# Method: Displacement of [Leu-3,4,5-3H(N)]-Substance P from NK1 receptor in rat brain homogenate measured after 60 mins by microbeta scintillation counting analysis
# Substance-P receptor, sequence (P14600 whole entry): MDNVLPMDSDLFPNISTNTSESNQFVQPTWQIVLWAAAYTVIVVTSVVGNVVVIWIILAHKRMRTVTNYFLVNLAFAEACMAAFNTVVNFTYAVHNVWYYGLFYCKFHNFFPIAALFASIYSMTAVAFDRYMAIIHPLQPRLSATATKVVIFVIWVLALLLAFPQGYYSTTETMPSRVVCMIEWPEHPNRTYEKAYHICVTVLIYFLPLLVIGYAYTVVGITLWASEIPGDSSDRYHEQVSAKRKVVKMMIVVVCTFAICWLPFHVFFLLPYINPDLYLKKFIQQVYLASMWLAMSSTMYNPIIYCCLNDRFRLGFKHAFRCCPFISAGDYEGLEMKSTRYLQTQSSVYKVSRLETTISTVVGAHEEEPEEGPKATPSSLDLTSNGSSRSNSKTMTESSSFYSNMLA
compound,measurement,value
C[C@@H](NC(=O)[C@@H](N)Cc1ccc(O)cc1)C(=O)NCC(=O)N[C@@H](Cc1ccccc1)C(=O)NN=Cc1cc(C(F)(F)F)cc(C(F)(F)F)c1,IC50,4.2 nM
